Experimental findings from PubChem BioAssay AID330 (DTP/NCI, 2004) are described below.

Each structure is given as a SMILES string. Where “and” joins values, the source holds several entries; their conditions need not be identical. Equal entries are not always repeated. Toxic doses and inconclusive results are not listed.

The assay deals with P388 leukemia ip, CD2F1 mice, survival T/C. As to the kind of experiment: NCI In Vivo Anticancer Drug Screen. Data for tumor model P388 Leukemia (intraperitoneal) in CD2F1 (CDF1) mice. Particulars: endpoint: median survival time, higher = longer survival. The procedure, abridged:
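Mice carrying the transplanted tumor received test compound or vehicle. Survival was recorded in each group, and the value is the treated-group measurement divided by that of the vehicle-treated control group.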

Setting [1] is: dose: 60.0 mg/kg/injection, schedule: Q01DX005 (ip), vehicle: saline with Tween-80.
Where [2] appears, read: dose: 120.0 mg/kg/injection, schedule: Q01DX005 (ip), vehicle: saline with Tween-80.
Setting [3] is: dose: 240.0 mg/kg/injection, schedule: Q01DX005 (ip), vehicle: saline with Tween-80.
[4] abbreviates: dose: 100.0 mg/kg/injection, schedule: Q04DX003 (ip), vehicle: saline with Tween-80.
The mark [5] stands for this setting: dose: 200.0 mg/kg/injection, schedule: Q04DX003 (ip), vehicle: saline with Tween-80.
[6] abbreviates: dose: 50.0 mg/kg/injection, schedule: Q01DX005 (ip), vehicle: Klucel (hydroxypropylcellulose) (HPC).
The mark [7] stands for this setting: dose: 100.0 mg/kg/injection, schedule: Q01DX005 (ip), vehicle: Klucel (hydroxypropylcellulose) (HPC).
The mark [8] stands for this setting: dose: 200.0 mg/kg/injection, schedule: Q01DX005 (ip), vehicle: Klucel (hydroxypropylcellulose) (HPC).
Where [9] appears, read: dose: 50.0 mg/kg/injection, schedule: Q01DX009 (ip), vehicle: saline.
Where [10] appears, read: dose: 100.0 mg/kg/injection, schedule: Q01DX009 (ip), vehicle: saline.
The mark [11] stands for this setting: dose: 200.0 mg/kg/injection, schedule: Q01DX009 (ip), vehicle: saline.
Where [12] appears, read: dose: 100.0 mg/kg/injection, schedule: Q01DX009 (ip), vehicle: saline with Tween-80.
The mark [13] stands for this setting: dose: 200.0 mg/kg/injection, schedule: Q01DX009 (ip), vehicle: saline with Tween-80.
Where [14] appears, read: dose: 25.0 mg/kg/injection, schedule: Q04DX003 (ip), vehicle: Klucel (hydroxypropylcellulose) (HPC).
Setting [15] is: dose: 50.0 mg/kg/injection, schedule: Q04DX003 (ip), vehicle: Klucel (hydroxypropylcellulose) (HPC).
Where [16] appears, read: dose: 100.0 mg/kg/injection, schedule: Q04DX003 (ip), vehicle: Klucel (hydroxypropylcellulose) (HPC).
Where [17] appears, read: dose: 50.0 mg/kg/injection, schedule: Q04DX003 (ip), vehicle: saline.
Where [18] appears, read: dose: 50.0 mg/kg/injection, schedule: Q01DX005 (ip), vehicle: saline with Tween-80.
Where [19] appears, read: dose: 100.0 mg/kg/injection, schedule: Q01DX005 (ip), vehicle: saline with Tween-80.
Setting [20] is: dose: 200.0 mg/kg/injection, schedule: Q04DX003 (ip), vehicle: Klucel (hydroxypropylcellulose) (HPC).
[21] abbreviates: dose: 200.0 mg/kg/injection, schedule: Q01DX005 (ip), vehicle: saline with Tween-80.
The mark [22] stands for this setting: dose: 60.0 mg/kg/injection, schedule: Q01DX005 (ip), vehicle: saline.
Where [23] appears, read: dose: 120.0 mg/kg/injection, schedule: Q01DX005 (ip), vehicle: saline.

As for `CCOC(=O)c1cc2nc(C(C)C)n(Cc3ccccc3)c2cc(C(=O)OCC)c1=O`, the T/C was 103 % of control under setting [1], 97 % of control under setting [2] and 89 % of control under setting [3].
`[Cl][Sn]1([Cl])[N]2CCCCC2C2CCCC[N]21` (stereo not drawn): the T/C runs as follows: under setting [4], 97 % of control; under setting [5], 99 % of control.
On to `CC1(c2ccccc2)NN1`, for which the T/C (dose: 100.0 mg/kg/injection, schedule: Q04DX002 (ip), vehicle: saline with Tween-80) is 94 % of control; the T/C (dose: 200.0 mg/kg/injection, schedule: Q04DX002 (ip), vehicle: saline with Tween-80) was 95 % of control; the T/C (dose: 400.0 mg/kg/injection, schedule: Q04DX002 (ip), vehicle: saline with Tween-80) was 94 % of control.
As for `c1ccc(-c2cc3nncc(-c4ccccc4)n3n2)cc1`, the T/C is, setting by setting: under setting [6], 107 % of control; under setting [7], 105 % of control; under setting [8], 96 % of control.
In the case of `Oc1ccc(Nc2ccc(N(CCCl)CCCl)cc2)c2ccccc12`, the T/C is, setting by setting: (dose: 6.25 mg/kg/injection, schedule: Q01DX001 (ip), vehicle: Klucel (hydroxypropylcellulose) (HPC)) 123 % of control; (dose: 50.0 mg/kg/injection, schedule: Q01DX001 (ip), vehicle: Klucel (hydroxypropylcellulose) (HPC)) 192 % of control and 195 % of control.
Take `CCSc1ccc2c(cc1=O)C(N)CCc1cc(OC)c(OC)c(OC)c1-2` (stereo not drawn): the T/C by setting is: (dose: 50.0 mg/kg/injection, schedule: Q01DX009 (ip), vehicle: Klucel (hydroxypropylcellulose) (HPC)) 96 % of control; (dose: 100.0 mg/kg/injection, schedule: Q01DX009 (ip), vehicle: Klucel (hydroxypropylcellulose) (HPC)) 121 % of control.
Take `O=C(C1=C(Nc2ccccc2)CCC1)c1ccccc1`: the T/C is 116 % of control under setting [9], 106 % of control under setting [10] and 106 % of control under setting [11].
As to `CCC1(c2ccccc2)SC(=O)NC1=O` (stereo not drawn), the T/C (dose: 50.0 mg/kg/injection, schedule: Q01DX009 (ip), vehicle: saline with Tween-80) was 91 % of control; the T/C under setting [12] is 91 % of control; the T/C under setting [13] was 98 % of control.
Consider `CCOC(=O)CCCCCOC1CCCCO1` (stereo not drawn), for which the T/C by setting is: under setting [1], 98 % of control; under setting [2], 97 % of control; under setting [3], 103 % of control.
Regarding `O=C(c1cc(Cl)c(Cl)c([N+](=O)[O-])c1Cl)C(Cl)Cl`, the T/C was 104 % of control under setting [14], 99 % of control under setting [15] and 103 % of control under setting [16].
Consider `O=C(CC(=NCC(O)CN=C(CC(=O)c1ccccc1)c1ccccc1)c1ccccc1)c1ccccc1.[Ni]` (stereo not drawn), for which the T/C (dose: 25.0 mg/kg/injection, schedule: Q04DX003 (ip), vehicle: saline with Tween-80) was 94 % of control; the T/C (dose: 50.0 mg/kg/injection, schedule: Q04DX003 (ip), vehicle: saline with Tween-80) was 94 % of control; the T/C under setting [4] is 87 % of control; the T/C under setting [5] was 86 % of control.
In the case of `CCC1CC(C)C(=O)NC1=O` (stereo not drawn), the T/C is 100 % of control (dose: 12.5 mg/kg/injection, schedule: Q04DX003 (ip), vehicle: saline); 100 % of control (dose: 25.0 mg/kg/injection, schedule: Q04DX003 (ip), vehicle: saline); 109 % of control under setting [17].
For the compound `CC1OC(=O)c2ccccc2S1=O` (stereo not drawn), the T/C under setting [12] was 95 % of control; the T/C under setting [13] is 90 % of control; the T/C (dose: 400.0 mg/kg/injection, schedule: Q01DX009 (ip), vehicle: saline with Tween-80) was 95 % of control.
Take `CCOP(=O)(/C=C1/C(=O)OCC1(C)C)OCC`: the T/C by setting is: (dose: 100.0 mg/kg/injection, schedule: Q04DX003 (ip), vehicle: saline) 100 % of control; (dose: 200.0 mg/kg/injection, schedule: Q04DX003 (ip), vehicle: saline) 101 % of control; (dose: 400.0 mg/kg/injection, schedule: Q04DX003 (ip), vehicle: saline) 104 % of control.
In the case of `CCCCCCCCOP(=O)(N1CC1)N1CC1`, the T/C was 154 % of control (dose: 22.0 mg/kg/injection, schedule: Q04DX003 (ip), vehicle: saline); 222 % of control (dose: 33.0 mg/kg/injection, schedule: Q04DX003 (ip), vehicle: saline); 159 % of control under setting [17]; 118 % of control (dose: 75.0 mg/kg/injection, schedule: Q04DX003 (ip), vehicle: saline).
Consider `COC(=O)C1=NNC2(c3ccccc3Sc3ccccc32)C1C(=O)OC` (stereo not drawn), for which the T/C reads like this: under setting [6], 90 % of control; under setting [7], 92 % of control; under setting [8], 90 % of control.
Turning to `O=C(O)c1c(Cl)n(Cc2ccc(Cl)cc2Cl)c2ccccc12`, the T/C (dose: 60.0 mg/kg/injection, schedule: Q01DX005 (ip), vehicle: Klucel (hydroxypropylcellulose) (HPC)) is 100 % of control; the T/C (dose: 120.0 mg/kg/injection, schedule: Q01DX005 (ip), vehicle: Klucel (hydroxypropylcellulose) (HPC)) is 103 % of control and 93 % of control; the T/C (dose: 240.0 mg/kg/injection, schedule: Q01DX005 (ip), vehicle: Klucel (hydroxypropylcellulose) (HPC)) is 104 % of control and 93 % of control.
With `O=C(Nc1ccccc1C1=NCCN1)c1ccc(C(=O)Nc2ccccc2C2=NCCN2)cc1`, the T/C is 96 % of control under setting [6], 87 % of control under setting [7] and 91 % of control under setting [8].
As to `NC(=S)NN=C(C1CC1)C1CC1`, the T/C by setting is: (dose: 6.25 mg/kg/injection, schedule: Q01DX005 (ip), vehicle: Klucel (hydroxypropylcellulose) (HPC)) 98 % of control; (dose: 12.5 mg/kg/injection, schedule: Q01DX005 (ip), vehicle: Klucel (hydroxypropylcellulose) (HPC)) 97 % of control.
As for `Nc1nc(-c2ccccn2)cc2ccccc12`, the T/C runs as follows: under setting [1], 105 % of control; under setting [2], 100 % of control.
For `COc1ccc(Cc2cc3c(cc2OCC(=O)NN)OCO3)cc1`, the T/C was 89 % of control under setting [6], 88 % of control under setting [7] and 91 % of control under setting [8].
`Cc1cc(C2=CSC3=NCCN23)ccc1Cl`: the T/C runs as follows: under setting [18], 107 % of control; under setting [19], 105 % of control.
For `CC(=C\C=N\N(C)c1ccccc1)/C=C1\Cc2ccccc2C1=O`, the T/C under setting [16] was 99 % of control; the T/C under setting [20] was 97 % of control; the T/C (dose: 400.0 mg/kg/injection, schedule: Q04DX003 (ip), vehicle: Klucel (hydroxypropylcellulose) (HPC)) is 96 % of control.
Consider `Cc1cc(NS(=O)(=O)c2ccc(Nc3ccnc4cc(Cl)ccc34)cc2)no1`, for which the T/C reads like this: under setting [18], 92 % of control; under setting [19], 86 % of control; under setting [21], 92 % of control.
For the compound `CCCCOC(=O)[C@@H]1O[C@H]2OC=C[C@H]21`, the T/C runs as follows: (dose: 6.25 mg/kg/injection, schedule: Q01DX005 (ip), vehicle: saline with Tween-80) 100 % of control; (dose: 12.5 mg/kg/injection, schedule: Q01DX005 (ip), vehicle: saline with Tween-80) 106 % of control.
Regarding `O=C(O)Cc1noc2ccccc12`, the T/C is 92 % of control under setting [14], 91 % of control under setting [15], 91 % of control under setting [16] and 90 % of control under setting [20].
For the compound `CC(C)=NNC1=NC(C)(C)P(=O)(N2CCCC2C(=O)O)S1` (stereo not drawn), the T/C is 98 % of control under setting [22]; 104 % of control under setting [23]; 102 % of control (dose: 240.0 mg/kg/injection, schedule: Q01DX005 (ip), vehicle: saline).
In the case of `COC1=CC2CCN3C=C(C#N)C(C#N)CC3C2C=C1OC` (stereo not drawn), the T/C is 95 % of control under setting [18], 111 % of control under setting [19] and 111 % of control under setting [21].
Take `CCCCCCCCCC#CC(=O)OC`: the T/C is, setting by setting: under setting [9], 105 % of control; under setting [10], 105 % of control; under setting [11], 105 % of control.
Regarding `COC1=CC(C(=O)O)C=C(OC)C1`, the T/C by setting is: under setting [18], 102 % of control; under setting [19], 104 % of control; under setting [21], 89 % of control.
Take `CN(C)C=C1C(=O)CCCC1=O`: the T/C by setting is: under setting [22], 105 % of control; under setting [23], 117 % of control.
